Assay results as given in patent publication US20110311483A1, “CRTH2 MODULATORS” (IRONWOOD PHARMACEUTICALS, INC., priority 2010, published 2011).
pIC50: −log10 of the molar value.

Assays:
[1] = target: T1, CRTH2 (Homo sapiens, UniProt Q9Y5Y4); assay: DPBS CD11b Antagonist Assay (CD11b expression in eosinophils, polymorphonuclear cells challenged with 15R-Methyl-PGD2); type: cell-based; settings: polymorphonuclear cells in PBS with CaCl2 and MgCl2; agonist 15R-Methyl-PGD2 10 nM; flow cytometry
T1 construct: polymorphonuclear cells (0.5 ml; 10^6/ml cells) in PBS containing 0.9 mM CaCl2 and 0.5 mM MgCl2) were preincubated with various concentrations of test compounds; endogenous in cells; host or cells: polymorphonuclear cells (eosinophils gated by side scatter and VLA-4)
T1 sequence (Q9Y5Y4 1-395): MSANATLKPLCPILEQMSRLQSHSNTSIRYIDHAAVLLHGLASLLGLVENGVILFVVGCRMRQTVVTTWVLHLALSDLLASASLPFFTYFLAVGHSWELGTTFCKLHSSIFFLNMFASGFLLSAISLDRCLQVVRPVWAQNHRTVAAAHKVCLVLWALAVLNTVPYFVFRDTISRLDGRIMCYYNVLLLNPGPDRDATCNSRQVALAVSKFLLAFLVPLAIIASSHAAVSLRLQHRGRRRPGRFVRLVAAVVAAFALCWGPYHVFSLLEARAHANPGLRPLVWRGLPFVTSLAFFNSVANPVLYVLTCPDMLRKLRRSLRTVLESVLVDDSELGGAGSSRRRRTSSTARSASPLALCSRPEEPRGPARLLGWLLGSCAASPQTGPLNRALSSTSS
Method: (§1) Human Whole Blood CD11b Antagonist Assay (modified from Nicholson, et al. Pulmonary Pharmacology and Therapeutics: 20 (2007); 52-59). The potential CRTH2 antagonist activity of certain compounds was tested in human whole blood using an assay that tests the ability of the compounds to block the CD11b expression in eosinophils by 15-R-methyl-PGD2. A CRTH2 antagonist should block CD11b expression by subsequently added 15-Methyl-PGD2. Human whole blood (200 μL) was incubated at 37° C. for 10 minutes in the presence of various concentrations of test compounds before being challenged with the agonist 15R-Methyl-PGD2 (10 nM). Reactions were terminated by the addition of ice-cold PBS+0.5% BSA+2 m MEDTA (1 mL) and centrifugation (300×g for 5 minutes at 4° C.) Cells were then incubated at 4° C. for 10 min in the presence of human IgG. Cells were then incubated for 30-45 min with a mixture of PE-Cy5-labeled mouse anti-human CD16 (10 μl; BD Biosciences) and FITC-labeled mouse anti-human CD11b (10 μL; Beckman Coulter.) After rinsing (1 mL ice-cold PBS+0.5% BSA+2 mMEDTA), red blood cells were lysed by the addition of 1 mL ice-cold H2O to the cell pellet for 30 sec-1 min immediately followed by the addition of 3.5% NaCl (300 μL.) Cells were then rinsed (2×−1 ml ice cold PBS+0.5% BSA+2 m MEDTA) and fixed in PBS containing 1% formaldehyde. The distribution of fluorescence intensities was measured by flow cytometry. Eosinophils were gated out on the basis of their granularity (high side scatter) and absence of CD-16. CD11b was then measured on this eosinophil population on the basis of fluorescence due to FITC. DPBS CD11b Antagonist Assay. The potential CRTH2 antagonist activity of certain compounds was tested using a CD11b expression assay using essentially the method described by Monneret et al. (J Pharmacol Exp Ther 304:349-55, 2003). Briefly, polymorphonuclear cells (0.5 ml; 10^6/ml cells) in PBS containing 0.9 mM CaCl2 and 0.5 mM MgCl2) were preincubated with various concentrations of test compounds at room temperature for 10 minutes before they were challenged with the agonist 15R-Methyl-PGD2 (10 nM). The incubations were terminated by the addition of ice-cold FACSFlow (BD Biosciences; Cat# 342003) and centrifugation (400 g for 5 minutes at 4° C.). The cells were then incubated for 30 minutes at 4° C. with a mixture of PE-labeled mouse anti-human VLA-4 (5 μl; BD Biosciences) and FITC-labeled mouse anti-human CD11b (10 μl; Beckman Coulter). The cells were then incubated with Optilyse C (0.25 ml; Beckman Coulter) for 15 minutes, centrifuged, and then fixed in PBS (0.4 ml; calcium and magnesium free) containing 1% formaldehyde. The distribution of fluorescence intensities among 60,000 cells was measured by flow cytometry. Eosinophils were gated out on the basis of their granularity (high side scatter) and labeling with VLA-4 (PE fluorescence). CD11b was then measured in the eosinophil region on the basis of fluorescence due to FITC. All data were corrected for the value obtained for the corresponding isotope control antibody.

[2] = target: T1, CRTH2; assay: Human Whole Blood CD11b Antagonist Assay (CD11b expression in eosinophils challenged with 15R-Methyl-PGD2); type: cell-based; settings: agonist 15R-Methyl-PGD2 10 nM, flow cytometry
Method: as §1, with “The cells were then incubated with Optilyse C (0.25 ml; Beckman Coulter) for 15 minutes, centrifuged, and then fixed in PBS (0.4 ml; calcium and magnesium free) containing 1% formaldehyde.” left out, “All data were corrected for the value obtained for the corresponding isotope control antibody.” left out

| Structure (SMILES) | pIC50 [1] | pIC50 [2] |
| --- | --- | --- |
| Cc1c(C(=O)c2ccccc2S(=O)(=O)N2CCOCC2)c2c(n1CC(=O)O)CCC(C)(C)C2 [Compound I-1, 2-(2,5,5-Trimethyl-3-(2-(morpholinosulfonyl)benzoyl)-4,5,6,7-tetrahydro-1H-indol-1-yl)acetic acid] | 6.22 to 7.00 | 6.22 to 7.00 |
| CCOC(=O)Cn1c(C)c(Cc2ccccc2S(=O)(=O)N(C)CC)c2c1CC(C)(C)CC2=O [Compound I-2, Ethyl 2-(3-(2-(N-ethyl-N-methylsulfamoyl)benzyl)-2,6,6-trimethyl-4-oxo-4,5,6,7-tetrahydro-1H-indol-1-yl)acetate] | 6.22 to 7.00 | < 6.22 |
| CCN(C)S(=O)(=O)c1ccccc1Cc1c2c(n(CC(=O)O)c1C)CC(C)(C)CC2=O [Compound I-3, 2-(3-(2-(N-ethyl-N-methylsulfamoyl)benzyl)-2,6,6-trimethyl-4-oxo-4,5,6,7-tetrahydro-1H-indol-1-yl)acetic acid] | > 8.00 | 7.00 to 8.00 |
| Cc1c(Cc2ccccc2S(=O)(=O)N2CCCCC2)c2c(n1CC(=O)O)CC(C)(C)CC2=O [Compound I-4, 2-(2,6,6-Trimethyl-4-oxo-3-(2-(piperidin-1-ylsulfonyl)benzyl)-4,5,6,7-tetrahydro-1H-indol-1-yl)acetic acid] | > 8.00 | > 8.00 |
| CCOC(=O)C(C)n1c(C)c(Cc2ccccc2S(=O)(=O)N2CCCC2)c2c1CC(C)(C)CC2=O (stereo not drawn) [Compound I-5, Ethyl 2-(2,6,6-trimethyl-4-oxo-3-(2-(pyrrolidin-1-ylsulfonyl)benzyl)-4,5,6,7-tetrahydro-1H-indol-1-yl)propanoate] | < 6.22 |  |
